In brackets after ≈: the same amount, converted by molar mass. Like-named read-outs stand apart in the source and are kept apart here.
How the values were obtained:
[1] = tested on: NCI-H460 cell line (NSCL cancer); assay: Cell growth inhibition assay (cytotoxicity, cell count); type: cell-based, human
Procedure: The compounds of the invention were tested in a cytotoxicity assay on a wide spectrum of tumour cells. By way of example, the cytotoxicity data on the NCI-H460 cell line (NSCL cancer) concerning two compounds of formula (I) are reported, using camptothecin and the drugs Topotecan and SN-38 as references:
H460 Cells from human large cell lung tumor were cultured in RPMI-1640 medium containing 10% foetal calf serum. Cell sensitivity was determined by cell growth inhibition assay after 1 or 72 hr drug exposure. The cells in logarithmic growth were collected and seeded in duplicate in 6-wells plates. […] IC50 is defined as the concentration inhibiting by 50% cell growth compared with untreated controls growth.

[2] = target: T1, human recombinant enzyme (full length top1) (Homo sapiens, UniProt P11387); assay: Topoisomerase-I-dependent DNA rupture assay, DNA damage persistence; type: biochemical; conditions: 30 min incubation with 10 μM drug
T1 construct: the human recombinant enzyme (full length top1)
T1 sequence (P11387 1-765): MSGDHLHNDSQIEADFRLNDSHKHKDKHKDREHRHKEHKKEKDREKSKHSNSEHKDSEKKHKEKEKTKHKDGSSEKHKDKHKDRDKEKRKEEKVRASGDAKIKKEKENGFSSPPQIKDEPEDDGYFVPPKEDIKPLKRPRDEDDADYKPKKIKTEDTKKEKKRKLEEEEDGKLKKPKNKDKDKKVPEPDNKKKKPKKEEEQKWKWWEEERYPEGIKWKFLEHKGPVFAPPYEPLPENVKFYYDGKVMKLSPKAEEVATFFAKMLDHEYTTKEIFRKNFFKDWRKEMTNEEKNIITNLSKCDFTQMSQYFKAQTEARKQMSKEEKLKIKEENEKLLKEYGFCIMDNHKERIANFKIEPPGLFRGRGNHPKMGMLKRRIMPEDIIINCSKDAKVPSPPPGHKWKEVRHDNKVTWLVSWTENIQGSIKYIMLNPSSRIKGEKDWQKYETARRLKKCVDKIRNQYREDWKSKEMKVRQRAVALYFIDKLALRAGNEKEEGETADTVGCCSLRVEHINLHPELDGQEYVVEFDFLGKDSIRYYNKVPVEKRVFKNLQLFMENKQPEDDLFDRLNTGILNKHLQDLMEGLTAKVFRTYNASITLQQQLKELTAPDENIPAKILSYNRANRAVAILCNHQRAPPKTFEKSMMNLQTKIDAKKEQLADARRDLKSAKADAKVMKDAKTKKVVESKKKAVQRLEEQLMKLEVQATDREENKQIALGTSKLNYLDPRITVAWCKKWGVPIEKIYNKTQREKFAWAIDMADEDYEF
Procedure: DNA ruptures were determined using a 751-bp BamHI-EcoRI DNA SV40 purified gel (Beretta G L, Binaschi M, Zagni A N D, Capuani L, Capranico G. Tethering a type IB topoisomerase to a DNA site by enzyme fusion to a heterologous site-selective DNA-binding protein domain. Cancer Res 1999; 59:3689-97). DNA fragments were only labeled at 3′. The DNA rupture reaction (20,000 cpm/sample) was carried out in […] of 10 mM Tris-HCL (pH 7.6), 150 mM KCl, 5 mM MgCl2, 15 μg/mL BSA, 0.1 mM thiothreitol, and the human recombinant enzyme (full length top1) for 30 min at 37° C. The reactions were blocked using 0.5% SDS and 0.3 mg/mL K proteinase for 45 min. at 42° C. DNA damage persistence was tested at different times adding 0.6M NaCl after 30 min. incubation with 10 μM of the drug. After precipitation, DNA was resuspended in denaturation buffer (80% formamide, 10 mM NaOH, 0.01 M EDTA and 1 mg/mL dye) before seeding in desaturating gel (7% polyacrylamide in TBE buffer).

[3] = NCI-H460, H460 human large cell lung tumor cells, 1 or 72 hr drug exposure, counted with Coulter counter 72 hours after exposure, read-out: NCI-H460 IC50 (μg/mL) Cell count
[4] = Time 0 min after adding 0.6M NaCl
[5] = Time 1 min after adding 0.6M NaCl
[6] = Time 5 min after adding 0.6M NaCl
[7] = Time 10 min after adding 0.6M NaCl

SMILES	IC50 [1, 3]	Persitence of DNA damage (%) [2, 4]	Persitence of DNA damage (%) [2, 5]	Persitence of DNA damage (%) [2, 6]	Persitence of DNA damage (%) [2, 7]	IC50 ([1]; Homo sapiens, NCI-H460, read-out: NCI-H460 IC50 (μg/mL) Cell count)
CC[C@@]1(O)C(=O)OCc2c1cc1n(c2=O)Cc2cc3ccccc3nc2-1 [Camptothecin]	0.115 ± 0.0174 µg/mL (≈ 0.33 µM)	100%	58%	23%	20%	
CC[C@@]1(O)C(=O)OCC2=C1C=C1c3nc4ccccc4cc3C3NN=C2N13 (stereo partly drawn) [IDN 6132]	17 ± 4.25 µg/mL (≈ 47.2 µM)	100%	45%	32%	20%	
CC[C@@]1(O)C(=O)OCc2c1cc1c3nc4ccccc4cc3c3nnc2n13 [IDN 6137, triazole[5,4-c]16a-deoxocamptothecin]						3.8 ± 1.08 µg/mL (≈ 10.6 µM)
CCc1c2c(nc3ccc(O)cc13)-c1cc3c(c(=O)n1C2)COC(=O)[C@]3(O)CC [SN38, 10-hydroxy-7-ethylcamptothecin]	0.0865 ± 0.0049 µg/mL (≈ 0.22 µM)	100%	60%	33%	28%	
CC[C@@]1(O)C(=O)OCc2c1cc1n(c2=O)Cc2cc3c(CN(C)C)c(O)ccc3nc2-1 [Topotecan]	0.63 ± 0.44 µg/mL (≈ 1.49 µM)	100%	65%	20%	10%	
